Laboratory results: US10479780B2, “Aminopyrazole derivatives” (Chugai Seiyaku Kabushiki Kaisha, priority 2015, dated 2019)
Where two headings read alike, the source gives them in different places.

Columns and labels:
Format in all cases: biochemical
human Yes1 enzyme = molecular target: T1, human Yes1 enzyme (Homo sapiens, UniProt P07947); assay: Yes1 enzyme inhibitory activity (time-resolved fluorometry, biotinylated peptide phosphorylation); conditions: read-out: YES_IC50
T1 construct: made in house
T1 sequence (P07947 whole entry): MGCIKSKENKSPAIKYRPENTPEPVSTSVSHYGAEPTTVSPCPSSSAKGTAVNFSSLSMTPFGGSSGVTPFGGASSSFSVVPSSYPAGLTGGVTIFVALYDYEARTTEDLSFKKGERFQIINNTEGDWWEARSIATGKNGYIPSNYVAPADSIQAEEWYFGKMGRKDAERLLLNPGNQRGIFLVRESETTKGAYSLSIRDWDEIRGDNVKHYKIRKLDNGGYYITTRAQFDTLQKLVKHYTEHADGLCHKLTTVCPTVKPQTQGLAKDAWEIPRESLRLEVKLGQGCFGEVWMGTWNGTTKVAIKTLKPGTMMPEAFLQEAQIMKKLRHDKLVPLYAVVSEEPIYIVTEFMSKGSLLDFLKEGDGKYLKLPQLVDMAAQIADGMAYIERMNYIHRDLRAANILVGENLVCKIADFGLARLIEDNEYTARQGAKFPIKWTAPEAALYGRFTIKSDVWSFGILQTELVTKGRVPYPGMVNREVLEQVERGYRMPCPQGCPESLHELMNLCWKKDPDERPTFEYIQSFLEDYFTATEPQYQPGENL
How it was run: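 Inhibition was expressed against a compound-free control to give IC50, using TR-FRET read-out (Eu-cryptate anti-pTyr antibody, streptavidin-XL665).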

human Src enzyme = molecular target: T2, human Src enzyme (Homo sapiens, UniProt P12931); assay: Src enzyme inhibitory activity (time-resolved fluorometry, biotinylated peptide phosphorylation); conditions: read-out: SRC_IC50
T2 construct: purchased Carna Biosciences, Inc. 08-173
T2 sequence (P12931 whole entry): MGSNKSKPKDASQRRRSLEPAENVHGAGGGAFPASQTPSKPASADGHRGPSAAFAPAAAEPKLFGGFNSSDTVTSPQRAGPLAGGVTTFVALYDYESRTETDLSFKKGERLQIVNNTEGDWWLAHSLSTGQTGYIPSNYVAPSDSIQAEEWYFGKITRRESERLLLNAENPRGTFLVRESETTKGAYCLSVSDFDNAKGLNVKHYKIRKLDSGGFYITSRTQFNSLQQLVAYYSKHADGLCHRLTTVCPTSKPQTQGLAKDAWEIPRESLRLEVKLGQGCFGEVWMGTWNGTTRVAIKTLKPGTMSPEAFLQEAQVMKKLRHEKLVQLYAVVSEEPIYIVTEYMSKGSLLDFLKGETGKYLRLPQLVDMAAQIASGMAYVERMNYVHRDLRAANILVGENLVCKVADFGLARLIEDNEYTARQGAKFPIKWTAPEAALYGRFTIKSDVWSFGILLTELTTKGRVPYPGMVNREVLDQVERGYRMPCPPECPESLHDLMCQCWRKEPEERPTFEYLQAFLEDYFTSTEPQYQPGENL
How it was run: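 Compounds were tested for blocking tyrosine phosphorylation of a biotinylated peptide substrate by recombinant human Src. Phosphorylated product was quantified by time-resolved fluorometry using europium cryptate and XL665 conjugates, and IC50 was calculated against the compound-free control.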

human Lck enzyme = molecular target: T3, human Lck enzyme (Homo sapiens, UniProt P06239); assay: Lck enzyme inhibitory activity (time-resolved fluorometry, biotinylated peptide phosphorylation); conditions: read-out: LCK_IC50
T3 construct: purchased Carna Biosciences, Inc. 08-170
T3 sequence (P06239 whole entry): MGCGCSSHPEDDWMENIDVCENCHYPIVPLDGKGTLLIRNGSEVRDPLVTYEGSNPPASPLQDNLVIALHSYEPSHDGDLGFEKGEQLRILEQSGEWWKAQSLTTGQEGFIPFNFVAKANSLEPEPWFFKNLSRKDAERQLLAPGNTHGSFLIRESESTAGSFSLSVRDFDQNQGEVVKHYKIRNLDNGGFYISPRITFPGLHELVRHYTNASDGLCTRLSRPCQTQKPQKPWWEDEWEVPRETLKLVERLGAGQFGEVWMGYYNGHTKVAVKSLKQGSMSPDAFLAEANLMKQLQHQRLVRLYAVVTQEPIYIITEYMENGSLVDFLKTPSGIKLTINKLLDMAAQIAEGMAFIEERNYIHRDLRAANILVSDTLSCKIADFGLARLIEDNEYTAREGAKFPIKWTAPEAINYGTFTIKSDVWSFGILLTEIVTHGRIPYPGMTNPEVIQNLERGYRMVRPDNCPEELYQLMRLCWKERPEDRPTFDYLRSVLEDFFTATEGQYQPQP
How it was run: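 Readout pairs a europium cryptate-labelled anti-phosphotyrosine antibody with XL665-streptavidin, measured by time-resolved fluorescence. IC50 derived from percent inhibition against untreated controls.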

[1] = biotinylated peptide phosphorylation

| Compound | IC50 (human Yes1 enzyme; [1]) | IC50 (human Src enzyme; [1]) | IC50 (human Lck enzyme; [1]) | IC50 (human Yes1 enzyme) | IC50 (human Src enzyme) | IC50 (human Lck enzyme) |
| --- | --- | --- | --- | --- | --- | --- |
| Cc1cc2cc(C(=O)c3cnn(-c4cnc(Oc5c(F)cccc5F)cc4C)c3N)[nH]c2cc1NS(=O)(=O)c1cccc(C#N)c1 [Example 5-1-555, N-[2-[5-amino-1-[6-(2,6-difluorophenoxy)-4-methylpyridin-3-yl]pyrazole-4-carbonyl]-5-methyl-1H-indol-6-yl]-3-cyanobenzenesulfonamide] | 14 nM | 1200 nM | 150 nM | – | – | – |
| Cc1cc(Oc2ccccc2F)ncc1-n1ncc(C(=O)c2cc3cc(F)c(N4CC5(CCOCC5)NS4(=O)=O)cc3[nH]2)c1N [Example 5-1-413, [5-amino-1-[6-(2-fluorophenoxy)-4-methylpyridin-3-yl]pyrazol-4-yl]-[6-(2,2-dioxo-8-oxa-2λ6-thia-1,3-diazaspiro[4.5]decan-3-yl)-5-fluoro-1H-indol-2-yl]methanone] | 1.5 nM | 90 nM | 17 nM | – | – | – |
| COc1ccnc(S(=O)(=O)Nc2cc3[nH]c(C(=O)c4cnn(-c5cnc(Oc6c(F)cccc6F)cc5C)c4N)cc3cc2OCC(F)F)c1 [Example 5-1-569, N-[2-[5-amino-1-[6-(2,6-difluorophenoxy)-4-methylpyridin-3-yl]pyrazole-4-carbonyl]-5-(2,2-difluoroethoxy)-1H-indol-6-yl]-4-methoxypyridine-2-sulfonamide] | 4.1 nM | 230 nM | 22 nM | – | – | – |
| Cc1cc2cc(C(=O)c3cnn(-c4c(C)cc(Oc5cccc(F)c5F)cc4F)c3N)[nH]c2cc1N1CCCS1(=O)=O [Example 4-2-115, [5-amino-1-[4-(2,3-difluorophenoxy)-2-fluoro-6-methylphenyl]pyrazol-4-yl]-[6-(1,1-dioxo-1,2-thiazolidin-2-yl)-5-methyl-1H-indol-2-yl]methanone] | 4.1 nM | 63 nM | 16 nM | – | – | – |
| COc1cccc(S(=O)(=O)Nc2cc3[nH]c(C(=O)c4cnn(-c5ccc(Oc6ccccc6F)cc5C)c4N)cc3cc2OCC(F)F)c1 [Example 5-1-414, N-[2-[5-amino-1-[4-(2-fluorophenoxy)-2-methylphenyl]pyrazole-4-carbonyl]-5-(2,2-difluoroethoxy)-1H-indol-6-yl]-3-methoxybenzenesulfonamide] | 5.3 nM | 330 nM | 110 nM | – | – | – |
| Cc1cc(-n2ncc(C(=O)c3cc4cc(F)c(NS(C)(=O)=O)cc4[nH]3)c2N)cnc1Oc1ccccc1F [Example 5-1-039, N-[2-[5-amino-1-[6-(2-fluorophenoxy)-5-methylpyridin-3-yl]pyrazole-4-carbonyl]-5-fluoro-1H-indol-6-yl]methanesulfonamide] | – | – | – | 120 nM | 6100 nM | 2000 nM |
| Cc1cc(Oc2ccccc2)cc(F)c1-n1ncc(C(=O)c2cc3cc(F)c(NS(C)(=O)=O)cc3[nH]2)c1N [Example 4-7-013, N-[2-[5-amino-1-(2-fluoro-6-methyl-4-phenoxyphenyl)pyrazole-4-carbonyl]-5-fluoro-1H-indol-6-yl]methanesulfonamide] | 3 nM | 58 nM | 26 nM | – | – | – |
| Cc1cc2cc(C(=O)c3cnn(-c4cnc(Oc5ccccc5F)cc4C)c3N)[nH]c2cc1NS(=O)(=O)CCCF [Example 4-2-072, N-[2-[5-amino-1-[6-(2-fluorophenoxy)-4-methylpyridin-3-yl]pyrazole-4-carbonyl]-5-methyl-1H-indol-6-yl]-3-fluoropropane-1-sulfonamide] | 1.8 nM | 88 nM | 20 nM | – | – | – |
| Cc1cc(Oc2c(F)cccc2F)ncc1-n1ncc(C(=O)c2cc3cc(OC4CCN(C5CCCC5)CC4)c(-c4ccccc4Cl)cc3[nH]2)c1N [Example 5-1-288, [5-amino-1-[6-(2,6-difluorophenoxy)-4-methylpyridin-3-yl]pyrazol-4-yl]-[6-(2-chlorophenyl)-5-(1-cyclopentylpiperidin-4-yl)oxy-1H-indol-2-yl]methanone] | – | – | – | 1.9 nM | 52 nM | 17 nM |
| CS(=O)(=O)Nc1cc2[nH]c(C(=O)c3cnn(-c4c(F)cc(Oc5cccc(F)c5F)cc4F)c3N)cc2cc1F [Example 5-1-030, N-[2-[5-amino-1-[4-(2,3-difluorophenoxy)-2,6-difluorophenyl]pyrazole-4-carbonyl]-5-fluoro-1H-indol-6-yl]methanesulfonamide] | – | – | – | 2.4 nM | 76 nM | 8.7 nM |
| Cc1cc(Oc2ccccc2F)ccc1-n1ncc(C(=O)c2cc3cc(OC(F)F)c(NC4CCN(S(C)(=O)=O)CC4)cc3[nH]2)c1N [Example 4-23-010, [5-amino-1-[4-(2-fluorophenoxy)-2-methylphenyl]pyrazol-4-yl]-[5-(difluoromethoxy)-6-[(1-methylsulfonylpiperidin-4-yl)amino]-1H-indol-2-yl]methanone] | 7.2 nM | 34 nM | 25 nM | – | – | – |
| Cc1cc(Oc2ccccc2F)ncc1-n1ncc(C(=O)c2cc3cc(OCC(F)F)c(N4C(=O)NC(C)(C)C4=O)cc3[nH]2)c1N [Example 5-1-377, 3-[2-[5-amino-1-[6-(2-fluorophenoxy)-4-methylpyridin-3-yl]pyrazole-4-carbonyl]-5-(2,2-difluoroethoxy)-1H-indol-6-yl]-5,5-dimethylimidazolidine-2,4-dione] | – | – | – | 2 nM | 17 nM | 7.4 nM |
| Cc1cc2cc(C(=O)c3cnn(-c4cnc(Oc5cccc(Cl)c5)cc4C)c3N)[nH]c2cc1NS(=O)(=O)N1CCOCC1 [Example 4-2-111, N-[2-[5-amino-1-[6-(3-chlorophenoxy)-4-methylpyridin-3-yl]pyrazole-4-carbonyl]-5-methyl-1H-indol-6-yl]morpholine-4-sulfonamide] | 41 nM | 690 nM | 320 nM | – | – | – |
| Cc1cc(Oc2ccccc2F)ccc1-n1ncc(C(=O)c2cc3cc(C(C)C)c(N)cc3[nH]2)c1N [Example 5-1-266, [5-amino-1-[4-(2-fluorophenoxy)-2-methylphenyl]pyrazol-4-yl]-(6-amino-5-propan-2-yl-1H-indol-2-yl)methanone] | – | – | – | 2.1 nM | 11 nM | 11 nM |
| Cc1cc(Oc2ccccc2F)ccc1-n1ncc(C(=O)c2cc3cc(F)c(NS(=O)(=O)c4cncc(F)c4)cc3[nH]2)c1N [Example 5-1-547, N-[2-[5-amino-1-[4-(2-fluorophenoxy)-2-methylphenyl]pyrazole-4-carbonyl]-5-fluoro-1H-indol-6-yl]-5-fluoropyridine-3-sulfonamide] | 2.9 nM | 350 nM | 30 nM | – | – | – |
| COc1cc2[nH]c(C(=O)c3cnn(-c4ccc(Oc5ccccc5F)cc4C)c3N)cc2cc1NS(C)(=O)=O [Example 4-1-013, N-[2-[5-amino-1-[4-(2-fluorophenoxy)-2-methylphenyl]pyrazole-4-carbonyl]-6-methoxy-1H-indol-5-yl]methanesulfonamide] | 0.45 nM | 2.6 nM | 1.3 nM | – | – | – |
| CC(=O)N1CCC(c2cc3[nH]c(C(=O)c4cnn(-c5c(C)cc(Oc6ccccc6F)cc5F)c4N)cc3cc2OCC(F)F)CC1 [Example 4-17-017, 1-[4-[2-[5-amino-1-[2-fluoro-4-(2-fluorophenoxy)-6-methylphenyl]pyrazole-4-carbonyl]-5-(2,2-difluoroethoxy)-1H-indol-6-yl]piperidin-1-yl]ethanone] | 2.1 nM | 17 nM | 5.8 nM | – | – | – |
| Cc1cc(-n2ncc(C(=O)c3cc4cc(C)c(C5CCN(C(C)C)CC5)cc4[nH]3)c2N)ccc1Oc1ccccc1F [Example 5-1-012, [5-amino-1-[4-(2-fluorophenoxy)-3-methylphenyl]pyrazol-4-yl]-[5-methyl-6-(1-propan-2-ylpiperidin-4-yl)-1H-indd-2-yl] methanone] | – | – | – | 2.5 nM | 310 nM | 23 nM |
| Cc1cc(Oc2ccccc2F)ncc1-n1ncc(C(=O)c2cc3cc(F)c(NS(=O)(=O)NCCO)cc3[nH]2)c1N [Example 4-6-001, {5-amino-1-[6-(2-fluorophenoxy)-4-methylpyridin-3-yl]pyrazol-4-yl}-[5-fluoro-6-(2-hydroxyethylsulfamoylamino)-1H-indol-2-yl]methanone] | 0.92 nM | 70 nM | 13 nM | – | – | – |
| Cc1cc(-n2ncc(C(=O)c3cc4cc(OC5CCN(C6CS(=O)(=O)C6)CC5)c(Br)cc4[nH]3)c2N)ccc1Oc1ccccc1F [Example 5-1-227, [5-amino-1-[4-(2-fluorophenoxy)-3-methylphenyl]pyrazol-4-yl]-[6-bromo-5-[1-(1,1-dioxothietan-3-yl)piperidin-4-yl]oxy-1H-indol-2-yl]methanone] | – | – | – | 3.9 nM | 560 nM | 46 nM |
| Cc1ccccc1Oc1cc(C)c(-n2ncc(C(=O)c3cc4cc(NS(C)(=O)=O)c(F)cc4[nH]3)c2N)cn1 [Example 5-1-047, N-[2-[5-amino-1-[4-methyl-6-(2-methylphenoxy)pyridin-3-yl]pyrazole-4-carbonyl]-6-fluoro-1H-indol-5-yl] methanesulfonamide] | – | – | – | 0.87 nM | 15 nM | 5.1 nM |
| Cc1cc(Oc2ccccc2F)ccc1-n1ncc(C(=O)c2cc3cc(F)c(NS(=O)(=O)CC(=O)N4CCOCC4)cc3[nH]2)c1N [Example 4-10-004, N-[2-[5-amino-1-[4-(2-fluorophenoxy)-2-methylphenyl]pyrazole-4-carbonyl]-5-fluoro-1H-indol-6-yl]-2-morpholin-4-yl-2-oxoethanesulfonamide] | 0.53 nM | 12 nM | 8.3 nM | – | – | – |
